Measured values as given in patent publication US9751919B2, “Antimicrobial compositions comprising a hyaluronic acid binding peptide and a β-lactam antibiotic” (priority 2012, dated 2017).
Where two headings read alike, the source gives them in different places. Marks after values point to notes of the source that are not given here.

Columns and labels:
E. coli [1] = assay: MIC (CLSI broth dilution), agent alone; type: cell-based, Escherichia coli
Experimental: (§1) VISA (strains 92, 95 and 96), VRSA (strains 105 and 106) and E. coli (strain 69717) isolates were also tested. One MSSA was used as a control. All MICs were assessed using CLSI guidelines. Also assessed was the activity of cefazolin, ceftriazone, meropenem, and a piperacillin/tazobactam combination antibiotic. Minimum inhibitory concentration (MIC) is the lowest concentration of an antimicrobial that will inhibit the visible growth of a microorganism after incubation.
(§2) Antimicrobial Susceptibility Testing: A custom designed panel of antimicrobials was created. The panel included: PEP35, penicillin, piperacillin/tazobactam, cefazolin, ceftriaxone, meropenem, clarithromycin, clindamycin, gentamicin, amikacin, vancomycin, ciprofloxacin, levofloxacin, moxifloxacin, linezolid, trimethoprim/sulfamethoxazole and doxycycline. These agents were obtained as laboratory grade powders from their respective manufacturers. Stock solutions were prepared and dilutions made as described by the Clinical Laboratory Standards Institute (2005 CLSI). Following two subcultures from frozen stock the MICs of the antimicrobial agents for the isolates were determined by the CLSI 2005 approved broth macrodilution method. Briefly, test tubes containing doubling antibiotic dilutions (2 ml per tube) of cation adjusted Mueller-Hinton broth (eg. for Enterobacteriaceae) with or without lysed horse blood (2-5% V/V) [eg. for S. pneumoniae] were inoculated to achieve a final concentration of approximately 5×10^5 CFU/ml and incubated in ambient air for 24 hours prior to reading. Colony counts were performed periodically to confirm inocula. Quality control was performed every two weeks using a variety of ATCC QC organisms including; S. aureus 29213, E. faecalis 29212, E. coli 25922 and P. aeruginosa 27853. For all antimicrobials as well as PEP35, CLSI criteria were used.
(§3) One MS SA and ATCC reference strains were used as controls. All MICs were assessed using CLSI guidelines.

MSSA = assay: MIC (CLSI broth dilution), agent alone; type: cell-based, Staphylococcus aureus; settings: for MIC: S. aureus control, agent alone
Experimental: as §1
as §2, with “The panel included: PEP35, penicillin, piperacillin/tazobactam, cefazolin, ceftriaxone, meropenem, clarithromycin, clindamycin, gentamicin, amikacin, vancomycin, ciprofloxacin, levofloxacin, moxifloxacin, linezolid, trimethoprim/sulfamethoxazole and doxycycline.” left out, “27853.” for “27853. For all antimicrobials as well as PEP35, CLSI criteria were used.”
(§4) One MSSA was used as a control. All MICs were assessed using CLSI guidelines.
as §3

HA-MRSA = assay: MIC (CLSI broth dilution), agent alone; type: cell-based, Staphylococcus aureus
Experimental: as §1
as §2, with “The panel included: PEP35, penicillin, piperacillin/tazobactam, cefazolin, ceftriaxone, meropenem, clarithromycin, clindamycin, gentamicin, amikacin, vancomycin, ciprofloxacin, levofloxacin, moxifloxacin, linezolid, trimethoprim/sulfamethoxazole and doxycycline.” left out, “27853.” for “27853. For all antimicrobials as well as PEP35, CLSI criteria were used.”
as §4, §3

CA-MRSA = assay: MIC (CLSI broth dilution), agent alone; type: cell-based, Staphylococcus aureus; settings: for MIC: Staphylococcus aureus
Experimental: as §1
as §2, with “The panel included: PEP35, penicillin, piperacillin/tazobactam, cefazolin, ceftriaxone, meropenem, clarithromycin, clindamycin, gentamicin, amikacin, vancomycin, ciprofloxacin, levofloxacin, moxifloxacin, linezolid, trimethoprim/sulfamethoxazole and doxycycline.” left out, “27853.” for “27853. For all antimicrobials as well as PEP35, CLSI criteria were used.”
as §4, §3

P. mirabilis = assay: Checkerboard assay (FIC index); type: cell-based, Proteus mirabilis; settings: antibiotic combined with PEP35
Experimental: (§5) The checkerboard assays were carried out as described by Eliopoulos and Moellering (Chapter 9) in Antibiotic in Laboratory Medicine, Lorian Ed. 1996 as well as Bonapace et al. Diagnostic Microbiology and Infectious Diseases 2002; 44:363-366 and Bonapace et al. Diagnostic Microbiology and Infectious Diseases 2000; 38:43-50. In brief, checkerboard assays were performed in 96 well microtitre trays using an 8-by-8 well configuration. […] 96-well custom designed microtitre plates contained 100 ul/well of cation adjusted Mueller-Hinton broth (eg. for Enterobacteriaceae) with or without lysed horse blood (2-5% V/V) [eg. for S. pneumoniae] and were inoculated to achieve a final concentration of approximately 5×10^5 CFU/ml and incubated in ambient air for 24 hours prior to reading. Colony counts were performed periodically to confirm inocula. Quality control was performed every two weeks using a variety of ATCC QC organisms including; S. pneumoniae 49619, S. aureus 29213, E. faecalis 29212, E. coli 25922 and P. aeruginosa 27853. For all antimicrobials as well as PEP35, CLSI criteria was used.
(§6) The fractional inhibitory concentration index (FIC index) was used to interpret synergy, antagonism or additivity/indifference. FIC index=FIC of drug A+FIC of drug B where:
(§7) The FIC of drug A and drug B is calculated as follows, FIC drug A=MIC of drug A in combination/MIC of drug A alone and FIC of drug B=MIC of drug B in combination/MIC of drug B alone. Synergy is defined as FIC index ≦0.5, additivity/indifference FIC >0.5-4 and antagonism FIC index >4.
(§8) Antimicrobials used included PEP35, cefazolin, ceftriaxone, vancomycin, linezolid, tigecycline and daptomycin versus Gram-positive cocci and PEP35, gentamicin, levofloxacin, piperacillin/tazobactam, meropenem and colistin (Polymyxin E) versus Gram-negative bacilli. These agents were obtained as laboratory grade powders from their respective manufacturers. Stock solutions were prepared and dilutions made as described by the Clinical Laboratory Standards Institute (2005 CLSI).
(§9) Organisms included Gram-positive cocci (2 strains of each): Methicillin-susceptible Staphylococcus aureus (MSSA), community-associated (CA) and healthcare-associated (HA) methicillin-resistant Staphylococcus aureus (MRSA), vancomycin-intermediate Staphylococcus aureus (VISA), vancomycin-resistant Staphylococcus aureus (VRSA), methicillin-resistant Staphylococcus epidermidis (MRSE), Streptococcus pyogenes, Streptococcus agalactiae, Streptococcus pneumoniae, Enterococcus faecalis, Enterococcus faecium and vancomycin-resistant enterococcus (VRE). Gram-negative bacilli tested (2 strains of each) included: E. coli, Pseudomonas aeruginosa, Klebsiella pneumoniae, K. oxytoca, Enterobacter cloacae, P. mirabilis and Stenotrophomonas maltophilia. MIC testing, following two subcultures from frozen stock were determined by the CLSI 2005 approved broth microdilution method.

K. oxytoca = assay: Checkerboard assay (FIC index); type: cell-based, Klebsiella oxytoca; settings: antibiotic combined with PEP35
Experimental: as §5, §6, §7, §8, §9

S. maltophilia = assay: Checkerboard assay (FIC index); type: cell-based, Stenotrophomonas maltophilia; settings: antibiotic combined with PEP35
Experimental: as §5, §6, §7, §8, §9

E. coli [2] = assay: Checkerboard assay (FIC index); type: cell-based, Escherichia coli; settings: antibiotic combined with PEP35
Experimental: Checkerboard assays were carried out as described by Bonapace et al.
as §5, with “Diagnostic” for “The checkerboard assays were carried out as described by Eliopoulos and Moellering (Chapter 9) in Antibiotic in Laboratory Medicine, Lorian Ed. 1996 as well as Bonapace et al. Diagnostic”, “2002; 44:363-366.” for “2002; 44:363-366 and Bonapace et al. Diagnostic Microbiology and Infectious Diseases 2000; 38:43-50.”, “27853. […] All peptides were assessed for synergy with β-lactams and vancomycin.” for “27853.”, “as the peptides,” for “as PEP35,”, “criteria were” for “criteria was”
as §6
as §7, with “was” for “is”, “additivity/indifference defined as a” for “additivity/indifference”, “between 0.5 and 4” for “>0.5-4”, “antagonism defined as an” for “antagonism”
as §5, §7, §8
Organisms included Gram-positive cocci (2 strains of each): Methicillin-susceptible Staphylococcus aureus (MSSA), community-associated (CA) and healthcare-associated (HA) methicillin-resistant Staphylococcus aureus (MRSA), vancomycin-intermediate Staphylococcus aureus (VISA), vancomycin-resistant Staphylococcus aureus (VRSA), methicillin-resistant Staphylococcus epidermidis (MRSE), Streptococcus pyogenes, Streptococcus agalactiae, Streptococcus pneumoniae, Enterococcus faecalis, Enterococcus faecium and vancomycin-resistant enterococcus (VRE). […]

P. aeruginosa = assay: Checkerboard assay (FIC index); type: cell-based, Pseudomonas aeruginosa; settings: antibiotic combined with PEP35
Experimental: as §5, §6, §7, §8, §9

K. pneumoniae = assay: Checkerboard assay (FIC index); type: cell-based, Klebsiella pneumoniae; settings: antibiotic combined with PEP35
Experimental: as §5, §6, §7, §8, §9

E. cloacae = assay: Checkerboard assay (FIC index); type: cell-based, Enterobacter cloacae; settings: antibiotic combined with PEP35
Experimental: as §5, §6, §7, §8, §9

CC1=C(C(=O)O)N2C(=O)[C@@H](NC(=O)[C@H](N)c3ccccc3)[C@H]2SC1 [Cephalexin]
Cephalexin (MIC) (E. coli [1]; E. coli, antibiotic alone, two values in cell): 8/8 | MIC (E. coli [1]; Escherichia coli, E. coli control, agent alone, read-out: MIC): 8 µg/mL | Cephalexin (MIC) (MSSA; S. aureus (control row), antibiotic alone, two values in cell): 4/4 | MIC (MSSA): 8 µg/mL | MIC (MSSA; Staphylococcus aureus, MSSA, read-out: MIC): 4 µg/mL | MICs alone, range (HA-MRSA; 50 HA-MRSA strains): 128 to 512 µg/mL | strains resistant to the antibiotic (HA-MRSA; 50 HA-MRSA strains): 50 of the 50 strains | MIC (HA-MRSA; Staphylococcus aureus, MRSA / USA200, read-out: Cephalexin (MIC), HA-MRSA (CMRSA4/USA200), antibiotic alone): 512 µg/mL | MICs alone, range (CA-MRSA; 50 CA-MRSA strains): 64 to 512 µg/mL | strains resistant to the antibiotic (CA-MRSA; 50 CA-MRSA strains): 50 of the 50 strains | MIC (CA-MRSA; MRSA / USA300): 128 µg/mL | MIC (CA-MRSA; MRSA / USA400): 128 µg/mL | MIC (CA-MRSA; MRSA / USA400, CA-MRSA (CMRSA7/USA400/MW2) isolates, one per table line, agent alone, read-out: MIC): 512 µg/mL

C[C@H]1COc2c(N3CCN(C)CC3)c(F)cc3c(=O)c(C(=O)O)cn1c23 [Levofloxacin, levofloxacin]
Avg ΣFIC (range) (P. mirabilis; P. mirabilis 80267): >1* | Avg ΣFIC (range) (P. mirabilis; P. mirabilis 81569): >1* | Avg ΣFIC (range) (K. oxytoca; K. oxytoca 75316): 0.88 (0.53-1.25) | Avg ΣFIC (range) (K. oxytoca; K. oxytoca 76874): 0.94 (0.62-1.12) | Avg ΣFIC (range) (S. maltophilia; S. maltophilia 73062): 1.21 (1.03-1.5) | Avg ΣFIC (range) (S. maltophilia; S. maltophilia 77424): 0.94 (0.62-1.12) | Avg ΣFIC (range) (E. coli [2]; E. coli 69716): 0.93 (0.56-1.12) | Avg ΣFIC (range) (E. coli [2]; E. coli 70752): 1.13 (0.75-1.12) | Avg ΣFIC (range) (P. aeruginosa; P. aeruginosa 70849): 1.21 (1.03-1.5) | Avg ΣFIC (range) (P. aeruginosa; P. aeruginosa 71841): 1.13 (1.0-1.25) | Avg ΣFIC (range) (K. pneumoniae; K. pneumoniae 70508): 0.97 (0.75-1.12) | Avg ΣFIC (range) (K. pneumoniae; K. pneumoniae 77081): 1.14 (1.06-1.25) | Avg ΣFIC (range) (E. cloacae; E. cloacae 80194): 1.13 (1.0-1.25) | Avg ΣFIC (range) (E. cloacae; E. cloacae 83128): 0.98 (0.75-1.12)
